Measured values as given in patent US4159328A, “Tetrahydro-1,3,5-thiadiazin-4-one derivative” (Nihon Nohyaku Co., Ltd., priority 1977, dated 1979).
Where two headings read alike, the source gives them in different places.

Assays:
Assay type in all cases: in vivo
[1] = test system: cirrus red mite (Panonychus citri McGregor); experiment: Test Example 4: activity to citrus red mite (Rothamstead method); set-up: concentration or dose not given beside the values; details: two days after treatment, 25° C.; 2880 min
Protocol: Activity to cirrus red mite (Panonychus citri McGregor).
Testing method: The test was performed by Rothamstead method. A test composition was sprayed by means of a spray gun over grapefruit leaves infested with citrus red mites. After air-drying the grapefruit was left standing in a constant temperature cabinet at 25° C. Two days after the treatment, the number of survived mites was counted to calculate the mortality.

[2] = test system: larvae of brown planthopper (Nilaparvata lugens Stahl); experiment: Test Example 1: insecticidal activity against larvae of brown planthopper; details: third-instar larvae, 25° C.
Summary of the method: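 Rice seedlings at 1.5-leaf stage were dipped for 30 s in a 400 ppm test composition, air-dried, and infested with third-instar N. lugens larvae. After holding at 25 °C, mortality was scored 5 or 7 days post-treatment from three replicates.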

[3] = test system: larvae of 28-spotted lady beetle (Epilachna vigintioctopunctana Fabricius); experiment: Test Example 8: insecticidal activity against larvae of 28-spotted lady beetle; details: 120 h
Protocol: Insecticidal activity against larvae of 28-spotted lady beetle (Epilachna vigintioctopunctana Fabricius).
Testing method: Leaflets of tomato grown in a greenhouse were dipped in a test composition of 100 ppm concentration for 30 seconds and after that the leaflets were dried by air. In a Petri dish covered on the bottom with a piece of filter paper, were introduced 1 ml of water and three treated tomato leaflets. After having been infested with seven second-instar larvae of 28-spotted lady beetle, the Petri dish was left standing in a constant temperature cabinet at 25° C. Five days after the treatment, the dead-and-survival was inspected to calculate the mortality (2-replication test).

[4] = test system: larvae of bug. (Togo hemipterus Scott); experiment: Test Example 9: insecticidal activity against larvae of bug; details: 120 h, 10 ppm, first-instar larvae, 25° C., five days, read-out: Mortality
Protocol: Insecticidal activity against larvae of bug. (Togo hemipterus Scott).
Test method: Into a glass tube (1.6 cm in internal diameter and 9 cm in length), was added 1 ml of a test composition in 10 ppm concentration just to moisten the absorbent cotton. Five rice seeds and five first-instar larvae were introduced into the glass tube and the tube end was covered with a piece of Japanese paper. The glass tube was kept in a constant temperature cabinet at 25° C. Five days after treatment, the dead-and-survival was inspected to calculate the mortality (3-replication test).

[5] = test system: larvae of house mosquito (Culex pipiens pallens Coquillett); experiment: Test Example 6: insecticidal activity to larvae of house mosquito; details: 120 h
Summary of the method: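 Twenty first-instar Culex pipiens pallens larvae placed with feed in test composition diluted in deionized water to 10 ppm. Kept at 25 °C, and mortality counted five days after treatment.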

[6] = test system: two-spotted spider mite (Tetranychus urticae Koch); experiment: Test Example 3: activity to two-spotted spider mite
From the text: Activity to two-spotted spider mite (Tetranychus urticae Koch).
Testing method: Two-spotted spider mites were set free on the pot-planted soybean in a greenhouse. On the next day, a test composition of 1,000 ppm concentration was sprayed over the soybean by means of a spray gun. Two days or five days after the treatment, dead-and-survival was inspected to calculate the mortality.

[7] = test system: larvae of green rice leafhopper (Nephotettix cincticeps Uhler); experiment: Test Example 5: activity against larvae of green rice leafhopper; details: 168 h, 400 ppm, second-instar larvae, 25° C., seven days after treatment, read-out: Mortality
Summary of the method: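 Rice seedlings at 1.5 leaf age dipped 30 seconds in 400 ppm test composition, air-dried, then infested with five second-instar larvae. Kept at 25° C; mortality scored seven days after treatment, three replicates.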

[8] = test system: larvae of white-backed planthopper (Sogatella furcifera Horvath); experiment: Test Example 2: insecticidal activity against larvae of white-backed planthopper; details: 168 h, 400 ppm, first-instar larvae, 25° C., seven days after treatment, read-out: Mortality
Summary of the method: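 Rice seedlings at 1.5-leaf stage were dipped 30 s in 400 ppm test composition, air-dried, and infested with five first-instar larvae. Tubes were held at 25°C, and mortality was scored at 7 days from triplicate tests.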

[9] = 120 h, 1,000 ppm, 5 days after treatment
[10] = 100 ppm, second-instar larvae, 25° C., five days, read-out: Mortality
[11] = 48 h, 1,000 ppm, 2 days after treatment

SMILES | Mortality [1] | mortality at 400 ppm ([2]; 120 h, 5 days after treatment) | mortality at 100 ppm [3] | mortality at 10 ppm [4] | mortality at 10 ppm [5] | mortality at 1000 ppm [6, 9] | mortality at 400 ppm [7] | mortality at 400 ppm [8] | mortality at 100 ppm [3, 10] | mortality at 400 ppm ([2]; 168 h, 7 days after treatment) | mortality at 1000 ppm [6, 11]
CC(C)CN=C1SCN(c2ccccc2)C(=O)N1CC(C)C [Compound 148] | 100% | 100% | 100% |  |  |  |  |  |  |  | 
CCN1C(=O)N(c2ccccc2)CSC1=NCC(C)C [Compound 129] |  | 80% |  | 100% | 100% |  |  |  |  |  | 
CCCN1C(=O)N(c2ccccc2)CSC1=NC(C)CC (stereo not drawn) [Compound 136] |  | 80% | 50% | 100% | 100% |  |  |  |  |  | 
CC(C)CN1C(=O)N(c2ccccc2)CSC1=NC(C)C [Compound 149, 2-Isopropylimino-3-isobutyl-5-phenyl-tetrahydro-1,3,5-thiadiazin-4-one] |  | 100% | 100% | 50% | 100% |  |  |  |  |  | 
CC(C)(C)N=C1SCN(c2ccccc2)C(=O)N1C1CCCCC1 [Compound 155, 2-t-Butylimino-3-cyclohexyl-5-phenyl-tetrahydro-1,3,5-thiadiazin-4-one] |  | 50% | 100% | 100% | 100% |  |  |  |  |  | 
CCC(C)N1C(=O)N(c2ccccc2Cl)CSC1=NC(C)(C)C (stereo not drawn) [Compound 249] | 100% | 100% | 100% |  | 100% | 70% | 100% |  |  |  | 
CCCN=C1SCN(c2ccccc2)C(=O)N1CCC [Compound 134] |  | 100% | 80% | 80% | 80% |  |  |  |  |  | 
CC(C)N1C(=O)N(c2ccccc2)CSC1=NC(C)(C)CC(C)(C)C [Compound 156] |  | 100% | 90% | 50% | 100% |  | 100% |  |  |  | 
CCC(C)N=C1SCN(c2ccccc2)C(=O)N1C(C)CC (stereo not drawn) [Compound 151] |  | 100% | 100% | 80% | 100% |  | 100% |  |  |  | 
CC(C)N=C1SCN(c2ccccc2)C(=O)N1C(C)C [Compound 144, 2-Isopropylimino-3-isopropyl-5-phenyltetrahydro-1,3,5-thiadiazin-4-one] |  |  | 100% | 100% | 100% |  | 100% | 100% |  |  | 
CCCN1C(=O)N(c2ccccc2)CSC1=NC(C)C [Compound 135] | 100% | 100% | 100% | 100% | 100% |  |  |  |  |  | 
C=CCN1C(=O)N(c2ccccc2)CSC1=NC(C)(C)C [Compound 143] |  |  | 100% | 100% | 80% |  | 100% |  |  |  | 
CCN=C1SCN(c2ccccc2)C(=O)N1c1ccccc1 [Compound 162] |  | 100% |  | 50% | 100% |  |  |  | 50% |  | 
C=CCN1C(=O)N(c2ccccc2)CSC1=NC(C)C [Compound 141] |  | 100% | 100% | 80% | 100% |  | 100% |  |  |  | 
C=CCN=C1SCN(c2ccccc2)C(=O)N1CC=C [Compound 139] |  | 100% | 100% | 100% | 100% |  |  |  |  |  | 
CC(C)CN1C(=O)N(c2ccccc2)CSC1=NC(C)(C)C [Compound 150] |  | 100% | 80% | 50% | 100% |  | 90% |  |  |  | 
C=CCN1C(=O)N(c2ccccc2)CSC1=NCCC [Compound 140] |  | 100% | 50% | 50% | 100% |  | 100% |  |  |  | 
Cc1ccc(N2CSC(=NC(C)C)N(C(C)C)C2=O)cc1 [Compound 316] | 100% | 100% | 100% |  | 70% | 100% |  | 100% |  |  | 
CCC(C)N1C(=O)N(c2ccc(C)cc2)CSC1=NC(C)(C)C (stereo not drawn) [Compound 319] | 100% | 100% | 100% |  | 100% | 100% | 100% | 100% |  |  | 
CC(C)N=C1SCN(c2ccccc2)C(=O)N1C [Compound 118, 2-Isopropylimino-3-methyl-5-phenyl-tetrahydro-1,3,5-thiadiazin-4-one] | 100% |  |  | 100% |  |  |  |  |  |  | 
CCN1C(=O)N(c2ccccc2)CSC1=NC(C)C [Compound 127] |  | 100% | 80% | 100% | 100% |  |  |  |  |  | 
CCCN1C(=O)N(c2ccccc2)CSC1=NC(C)(C)C [Compound 137] |  | 80% | 50% | 50% | 100% |  |  |  |  |  | 
CCC(C)N1C(=O)N(c2ccccc2)CSC1=NC(C)(C)C (stereo not drawn) [Compound 152] |  | 100% | 100% | 100% | 100% |  | 100% | 100% |  |  | 
CCCN=C1SCN(c2ccccc2)C(=O)N1CC [Compound 126] |  | 100% |  | 100% | 100% |  |  |  | 80% |  | 
CCC(C)N1C(=O)N(c2ccccc2)CSC1=NC(C)(C)CC(C)(C)C (stereo not drawn) [Compound 157] |  | 100% | 100% | 100% | 100% |  |  |  |  |  | 
C=CCN1C(=O)N(c2ccccc2)CSC1=NC(C)CC (stereo not drawn) [Compound 142] |  | 100% | 100% | 100% | 100% |  | 100% |  |  |  | 
Cc1ccc(N=C2SCN(C(C)(C)C)C(=O)N2C)cc1 [Compound 72, 2-p-Tolylimino-3-methyl-5-t-butyl-tetrahydro-1,3,5-thiadiazin-4-one] | 80% |  |  |  |  |  | 80% | 100% |  | 80% | 100%
CCN1C(=O)N(c2ccccc2)CSC1=NC(C)(C)C [Compound 131, 2-t-Butylimino-3-ethyl-5-phenyl-tetrahydro-1,3,5-thiadiazin-4-one] | 100% | 100% | 100% | 100% | 100% |  | 100% |  |  |  | 
CN=C1SCN(C(C)(C)CC(C)(C)C)C(=O)N1c1ccccc1 [Compound 88] | 100% |  |  |  |  |  | 80% | 100% |  | 100% | 100%
CCN=C1SCN(C(C)C)C(=O)N1CC [Compound 23] | 80% |  |  |  |  |  | 80% | 100% |  | 100% | 100%
